Laboratory results taken from US11826402B2, “Combination therapy involving antibodies against claudin 18.2 for treatment of metastatic pancreatic adenocarcinoma” (Astellas Pharma Inc., priority 2013, dated 2023).

Key:
Type in all cases: cell-based
[1] = system: YAPC; assay: IMAB362-mediated CDC assay (healthy human serum pool, luciferase)
Experimental: (§1) CDC was performed as follows.

[2] = target: CAPAN1; assay: as above
Experimental: as §1

[3] = system: BxPC3; assay: as above
Experimental: as §1

[4] = target: Suit2; assay: as above
Experimental: as §1

[5] = target: Panc05.04; assay: as above
Experimental: as §1

[6] = target: DANG; assay: as above
Experimental: as §1

[7] = system: Panc05.04; assay: IMAB362-mediated ADCC assay (luciferase, human PBMCs, E:T 40:1)
Experimental: For ADCC assays pancreatic cancer cell lines were transiently transfected with luciferase RNA. This luciferase RNA (pST1-luc2mut-2 hBgUTR-A121-EciI vector (pST1-109)) was produced with an ARCA cap and dissolved in H2O. RNA was stored in 22 μl aliquots at −80° C. For all pancreas cell lines the optimal electroporation conditions were determined resulting in highest transfection rates and viability of the cells. In each assay cells were detached with PBS/5 mM EDTA and 2.5×10^6 cells dissolved in 250 μl X-Vivo were mixed in ice-cold cuvettes with 10 μg RNA. Cells were immediately electroporated (GenePulser Xcell, Biorad) and resuspended in pre-warmed Assay-medium adjusting the cells to 5×10^5 cells/ml. Tested electroporation conditions were for all cell lines: • EP1: 250 V, 475 μF • EP2: 200 V, 300 μF • EP3: 150 V, 300 μF • EP4: 200 V, 400 μF • EP5: 250 V, 950 μF • Control: 0 V, 0 μF
The viability of the cells was determined directly after electroporation using CASY or by staining cells with Trypan blue and determining the percentage of dead cells in the Neubauer chamber. Cells were seeded in quadruplicates in white 96-well plates (2.5×10^4 cells/well) and incubated for 24 h. Subsequently, luciferase activity was measured in a luminometer (Tecan Infinite200) after addition of luciferin mix for 90 min. Transfection was successful and consequently ADCC measurable, if RLU values >1.000 were obtained.
Pancreatic cancer target cells were seeded two days in advance in flasks to obtain 80-90% confluent cultures on the day ADCC started. […] NUGC-4 sub 10cH11 subE10 Luci #2 cells (8000 cells/well) were seeded in addition as positive controls in all assays. Cells were cultivated for 4-6 h before addition of antibody and purified PBMCs. PBMCs were prepared from fresh human buffy coat obtained from healthy donors. About 3× 20-25 ml blood was diluted (1:2) with PBS and carefully layered on 4×15 ml Ficol-Paque Plus (GE Healthcare) in 50 ml Falcon tubes. Gradients were centrifuged (25 min, 700 g). After centrifugation, peripheral blood mononuclear cells (PBMC) were collected from the interphase, washed in PBS/2 mM EDTA, centrifuged (5 min, 468 g), again resuspended in PBS/2 mM EDTA and centrifuged (10 min, 208 g) to remove the platelets. The pellets were resuspended in 50 ml PBS/2 mM EDTA and cells were counted. PBMCs were centrifuged (5 min, 468 g) and resuspended in X-Vivo-15 culture medium at a concentration of 1.6×10^7 cells/ml for addition to the pancreas cells and 1.28×10^7 cells/ml for addition to the NUGC-4 sub 10cH11 subE10 Luci #2 cells.
Of each dilution 25 μl was added in quadruplicates to the target cells. PBS without antibodies was added in the medium and lysis control wells. Subsequently, 25 μl PBMCs were added to each well (E:T ratio=40:1) and plates were incubated for 24 h±1 h at 37° C., 5% CO2.
The next day, 10 μl 8% Triton X100/PBS solution was added to the lysis control wells and 10 μl PBS in all other wells. Finally, 50 μl freshly prepared luciferin stock solution was added (160 mM HEPES, 1×PBS, 3.84 mg/ml D-Luciferin (BD Biosciences)) to each well and plates were incubated for 80 min at RT in the dark. Luminescence resulting from the oxidation of […] by the luciferase of viable cells was measured using a microplate-reader (Infinite200, Tecan, Switzerland). Percentage of cellular cytotoxicity was calculated using the following formula: Specific killing (%)=100−[(RLUsample−RLUtriton)/(RLUmedium ctrl−RLUtriton)×100] […]

IMAB362: chimeric IgG1 antibody directed against CLDN18.2, developed by Ganymed Pharmaceuticals AG
complement-dependent lysis ([1]; YAPC, healthy human serum pool): not lysed | CDC EC50 ([1]; YPAC): n.m. | CDC Max. lysis ([1]; YPAC): n.m. | CDC EC50 [2]: n.m. | CDC Max. lysis [2]: n.m. | complement-dependent lysis ([2]; healthy human serum pool): not lysed | complement-dependent lysis [3]: not lysed | CDC EC50 [4]: n.m. | CDC Max. lysis [4]: n.m. | complement-dependent lysis ([4]; healthy human serum pool): not lysed | CDC EC50 [5]: n.m. | CDC Max. lysis [5]: n.m. | complement-dependent lysis ([5]; healthy human serum pool): not lysed | CDC EC50 [6]: n.m. | CDC Max. lysis [6]: n.m. | complement-dependent lysis ([6]; healthy human serum pool): not lysed | ADCC killing by IMAB362 and PBMCs ([7]; Panc05.04): efficiently killed | EC50 of effector cell-dependent killing (ADCC) ([7]; Panc05.04 (pooled with DANG), PBMCs of different donors, E:T 40:1): 0.1 to 38 µg/mL | maximum killing rate (ADCC) ([7]; Panc05.04, at highest antibody concentrations): ~50% | ADCC EC50 ([7]; Panc05.04, at least 2 donors): 5.7288 ± 4.4351 µg/mL | ADCC Max. lysis ([7]; Panc05.04, at least 2 donors): 67.1 ± 6.8%
